Data: US20240041976A1, “COMPOSITION AND USE” (priority 2020, published 2024)
Where two headings read alike, the source gives them in different places. No end group written: not given here.

How the values were obtained:
MRSA ATCC 33591 = assay: microbe, parasite or virus in culture; assay type: cell-based, Staphylococcus aureus; conditions: Staphylococcus aureus, 24 h, read-out: MIC, single antimicrobial
Method: (§1) Antimicrobial activity was measured using the AAMP assay (Wiegand et al., 2008, Nat. Protoc., Vol. 3(2), p 163-175).
(§2) Synergy testing was done with a microtiter plate checkerboard assay as previously described (Orhan et al., 2005, J. Clin. Microbiol., Vol. 43(1), p 140-143). Briefly, equal amounts of antimicrobial A were applied on microtiter plate 1 in wells A1-H1 and then diluted two-fold to wells 2-12. Similarly, equal amounts of antimicrobial B were applied on microtiter plate 2 in wells A1-A12 and diluted two-fold in wells B-H. Volumes of 50 μl of antimicrobial A from each well of microtiter plate 1 were transferred into microtiter plate 3, except for wells H1-H12. Similarly, the same volumes were transferred from microtiter plate 2 into plate 3, except for wells A1-A8. A 100 μl volume of 25 times diluted ON bacterial culture of MRSA was transferred into each well of plate 3. A 50 μl volume of pure broth was added into each well in lines H1-H12 and A1-A8 which were used to estimate MIC values of pure substances (blank).
(§3) Antimicrobial activity was measured using the AAMP assay as described in Example 2.
(§4) Synergy testing was performed as in Example 2.

E. faecium LMGT 3104 = assay: microbe, parasite or virus in culture; assay type: cell-based, Enterococcus faecium; conditions: Enterococcus faecium, LMGT3104, read-out: MIC, single antimicrobial
Method: as §1, §2, §3, §4

S. haemoliticus NVH 409 = assay: organism not typed; assay type: cell-based
Method: as §1, §2, §3, §4

E. faecalis 3351 = assay: microbe, parasite or virus in culture; assay type: cell-based, Enterococcus faecalis
Method: as §1, §2, §3, §4

E.faecalis 3689 = assay: microbe, parasite or virus in culture; assay type: cell-based, Enterococcus faecalis
Method: as §1, §2, §3, §4

[1] = system: S. pseudintermedius MRSP 45; assay: microbe, parasite or virus in culture; assay type: cell-based, Staphylococcus pseudintermedius; conditions: Staphylococcus pseudintermedius, MRSP45, MRSP 45, 24 h, read-out: MIC, single component
Method: as §1, §2, §3, §4

[2] = system: S. aureus biofilms (six strains); assay: BOAT, summary over strains; assay type: cell-based, Staphylococcus aureus
Method: The BOAT assay was performed as described previously (Gronseth et al., 2017, Int. J. Pediatr. Otorhinolaryngol., Vol. 103, p 58-64) with some modifications. The serial dilutions of the antimicrobials were prepared in challenge plates as follows: 175 μl of TSB were transferred in each row of a 96-well microtiter plate, except for the first row, according to the number of microbial strains to treat. In the first row of the plate, the antimicrobials were diluted to their respective working concentrations in a final volume of 350 μl of TSB. From the first row, 175 μl of the antimicrobial dilutions were then transferred to the second row of the plate and further serially diluted to the bottom of the plate. The same procedure was followed to prepare the controls, except that instead of the antimicrobials an equivalent volume of the respective vehicles were used. […] The results were then assessed by monitoring the development (or not) of red formazan (red colour), denoting the retention of metabolic activity by bacterial cells (Moussa et al., 2013, J. Mycol., Vol. 2013; Perez et al., 2010, Lett. Appl. Microbiol., Vol. 51, p 331-337). […] The amount of extracted dye, reflecting the degree of bacterial cell metabolic activity, was then quantified by spectrophotometric readings at 492 nm.

[3] = system: lactococci, listeria and enterococci; assay: MIC against other indicators (data not shown); assay type: cell-based
Method: as §1

MRSA ATCC 33521-lux = assay: Agar plate spot assay, resistance development (FIG. 4); assay type: cell-based, Staphylococcus aureus; conditions: up to 72 h incubation at 37° C.
Method: Pure GarKS and PenG each at 50 μg, MP1 at 0.1 μg, were applied at the indicated spots. The pictures of the plates were taken after 24, 48 and 72 h of incubation at 37° C. Sections of the inhibition zones on the right show resistance development seen as small white dots (in the inhibition zones of GarKS and MP1).

[4] = system: clinical S. aureus strains from leprosy-associated skin ulcers (biofilms); assay: BOAT on clinical isolates; assay type: cell-based, Staphylococcus aureus; conditions: 14 clinical S. aureus isolates
Description: Leprosy patients with plantar ulcers who were registered at LEPRA Society, BPHRC, Hyderabad, India during December 2018 through May 2019 (n=31) were enrolled into the study after obtaining an informed consent. The study protocol was approved by the Institutional Ethical Committee at LEPRA Society. A total of thirty-one wound swabs were collected using sterile pure viscose swab (Hi-media, Mumbai, India) and transported immediately for further processing to the microbiology laboratory. One swab was collected from each leprosy foot ulcer. Each swab was inoculated on Blood and McConkey agar and incubated at 37° C. overnight and the plates were examined for growth on the following day. Cultures were identified by colony morphology, Gram staining and other standard tests. […]
The BOAT assay was performed as described previously (Gronseth et al., 2017, Int. J. Pediatr. Otorhinolaryngol., Vol. 103, p 58-64) with some modifications. […] The results were then assessed by monitoring the development (or not) of red formazan (red colour), denoting the retention of metabolic activity by bacterial cells (Moussa et al., 2013, J. Mycol., Vol. 2013; Perez et al., 2010, Lett. Appl. Microbiol., Vol. 51, p 331-337). […] The amount of extracted dye, reflecting the degree of bacterial cell metabolic activity, was then quantified by spectrophotometric readings at 492 nm.

C/C=C(\NC(=O)c1csc(-c2csc(-c3ccc4c(n3)-c3csc(n3)[C@H]([C@@H](C)O)NC(=O)c3csc(n3)[C@H](C(C)C)NC(=O)c3csc(n3)/C(=C/C)NC(=O)[C@H]([C@@H](C)O)NC(=O)c3csc-4n3)n2)n1)C(=O)NC[C@@H](C)O [MP1, micrococcin P1]
MIC (MRSA ATCC 33591): 2.5 µg/mL | MIC (E. faecium LMGT 3104): 2.5 µg/mL | MIC (S. haemoliticus NVH 409; S. haemoliticus NVH 409, read-out: MIC, single antimicrobial): 1.25 µg/mL | MIC (E. faecalis 3351; Enterococcus faecalis, E. faecalis 3351, read-out: MIC, single antimicrobial): > 45 µg/mL | MIC (E.faecalis 3689; Enterococcus faecalis, E.faecalis 3689, read-out: MIC, single antimicrobial): > 45 µg/mL | MIC ([1]; Table 8): > 2.5 µg/mL | effect on biofilm-associated metabolic activity (BOAT) ([2]; six strains, up to 5 mg/ml garvicin KS, 0.1 mg/ml micrococcin P1): ineffective against all the strains | increase in resistance compared to the planktonic state ([2]; some of the biofilm producers): over 160 fold | MIC values, range [3]: 1 to 10 µg/mL | resistance development on agar plates (MRSA ATCC 33521-lux): resistant colonies of MRSA appeared within the inhibition zones

CC1(C)S[C@@H]2[C@H](NC(=O)Cc3ccccc3)C(=O)N2[C@H]1C(=O)O [Penicillin G]
MIC ([1]; Table 9): > 125 µg/mL

MKFKFNPTGTIVKKLTQYEINWYKQQYGRYPWERPVA [Hybrid K1-EJ]
MIC, single antimicrobial (S. haemoliticus NVH 409): >25 µg/mL | MIC of MP1 in comb. with the labelled antimicrobial (S. haemoliticus NVH 409; S. haemoliticus NVH 409): 0.08 µg/mL | MIC of the labelled antimicrobial in comb. with MP1 (S. haemoliticus NVH 409; S. haemoliticus NVH 409): 3 µg/mL | MIC, single antimicrobial (E. faecalis 3351; 3351): >25 µg/mL | MIC of MP1 in comb. with the labelled antimicrobial (E. faecalis 3351; E. faecalis 3351): 5.6 µg/mL | MIC of the labelled antimicrobial in comb. with MP1 (E. faecalis 3351; E. faecalis 3351): 3 µg/mL | MIC, single antimicrobial (E.faecalis 3689; 3689): >25 µg/mL | MIC of MP1 in comb. with the labelled antimicrobial (E.faecalis 3689; E.faecalis 3689): 3 µg/mL | MIC of the labelled antimicrobial in comb. with MP1 (E.faecalis 3689; E.faecalis 3689): 1.5 µg/mL

B1: Garvicin KS: three-peptide leaderless bacteriocin (GarA, GarB, GarC; SEQ ID NO:6-8), peptides synthesized (peptide, listed as Lactococcus garvieae)
chain 1: MGAIIKAGAKIVGKGVLGGGASWLGWNVGEKIWK
chain 2: MGAIIKAGAKIIGKGLLGGAAGGATYGGLKKIFG
chain 3: MGAIIKAGAKIVGKGALTGGGVWLAEKLFGGK
antimicrobial activity in BOAT on clinical isolates [4]: showed antimicrobial activity against all the strains | MIC values, range [3]: 1 to 20 µg/mL | resistance development on agar plates (MRSA ATCC 33521-lux): resistant colonies of MRSA appeared within the inhibition zones
